Target: T1, PAR4 (Homo sapiens, UniProt Q96RI0)
T1 construct: expressed in transfected cells; host or cells: HEK293 PAR4 Clone 1.2A (BMS Arctic ID 383940)
T1 sequence (Q96RI0 18-385): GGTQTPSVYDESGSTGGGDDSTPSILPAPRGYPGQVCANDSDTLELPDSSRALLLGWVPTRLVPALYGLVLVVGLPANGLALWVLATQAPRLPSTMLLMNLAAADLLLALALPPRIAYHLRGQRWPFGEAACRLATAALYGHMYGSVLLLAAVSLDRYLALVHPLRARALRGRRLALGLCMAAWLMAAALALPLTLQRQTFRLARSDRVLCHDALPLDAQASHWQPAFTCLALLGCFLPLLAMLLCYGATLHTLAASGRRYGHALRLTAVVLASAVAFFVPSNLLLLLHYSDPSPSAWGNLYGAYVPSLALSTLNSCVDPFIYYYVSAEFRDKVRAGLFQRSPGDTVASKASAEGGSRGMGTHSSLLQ
Assay: PAR4 FLIPR assay (antagonism of agonist peptide-induced calcium mobilization)
Format: cell-based
In short: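 Antagonism was taken as block of calcium mobilization evoked by the agonist peptide H-Ala-Phe(4-F)-Pro-Gly-Trp-Leu-Val-Lys-Asn-[…]-NH2, added after 30 min room-temperature compound preincubation in dye-loaded PAR4-transfected HEK293 cells (endogenous PAR1). Fluorescence was read on FDSS, with compound addition alone used as the agonist counter-screen; values come from 11-point concentration-response curves.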

IC50 [nM] | SMILES
1 | COc1ccc(NC(=O)OC[C@H]2COc3c(cc(F)c4nc(-c5cc(C)cc6nc(OC)cnc56)sc34)O2)cn1 [Example 68, (R)-(4-fluoro-2-(2-methoxy-7-methylquinoxalin-5-yl)-7,8-dihydro-[1,4]dioxino[2′,3′:3,4]benzo[1,2-d]thiazol-7-yl)methyl (6-methoxypyridin-3-yl)carbamate]
2.3 | COc1cnc2c(-c3nc4ccc5c(c4s3)OC[C@H](COC(=O)Nc3ccc([C@H](O)CO)nc3)O5)cc(C)cc2n1 [Example 111, ((R)-2-(2-methoxy-7-methylquinoxalin-5-yl)-7,8-dihydro-[1,4]dioxino[2′,3′:3,4]benzo [1,2-d]thiazol-7-yl)methyl (6-((S)-1,2-dihydroxyethyl)pyridin-3-yl)carbamate]
2.1 | COc1cnc2c(-c3nc4c(C)cc5c(c4s3)OCC(COC(=O)Nc3cnc(C)c(C)c3)O5)cc(C)cc2n1 (centres unmarked) [Example 119, (2-(2-methoxy-7-methylquinoxalin-5-yl)-4-methyl-7,8-dihydro-[1,4]dioxino[2′,3′:3,4]benzo[1,2-d]thiazol-7-yl)methyl (5,6-dimethylpyridin-3-yl)carbamate]
3.3 | COC(=O)c1cc(NC(=O)OCC2COc3c(cc(C)c4nc(-c5cc(C)cc6nc(OC)cnc56)sc34)O2)ccn1 (centres unmarked) [Example 134, methyl 4-((((2-(2-methoxy-7-methylquinoxalin-5-yl)-4-methyl-7,8-dihydro-[1,4]dioxino[2′,3′:3,4]benzo[1,2-d]thiazol-7-yl)methoxy)carbonyl)amino) picolinate]
1.8 | COc1cnc2c(-c3nc4ccc5c(c4s3)OC[C@H](COC(=O)Nc3cccnc3)O5)cc(C)cc2n1 [Example 108, (R)-(2-(2-methoxy-7-methylquinoxalin-5-yl)-7,8-dihydro-[1,4]dioxino[2′,3′:3,4]benzo[1,2-d]thiazol-7-yl)methyl pyridin-3-ylcarbamate]
2.9 | COc1cnc2c(-c3cc4c5c(cc(C)c4o3)O[C@@H](COC(=O)Nc3ccc(C)nc3)CO5)cc(C)cc2n1 [Example 14, (R)-(8-(2-methoxy-7-methylquinoxalin-5-yl)-6-methyl-2,3-dihydro-[1,4]dioxino[2,3-e]benzofuran-3-yl)methyl (6-methylpyridin-3-yl)carbamate]
8.8 | Cc1cc(-c2nc3c(F)cc4c(c3s2)OC(CO)CO4)c2ncc(OC(F)F)nc2c1 (centres unmarked) [Example 22, (2-(2-(difluoromethoxy)-7-methylquinoxalin-5-yl)-4-fluoro-7,8-dihydro-[1,4]dioxino[2′,3′:3,4]benzo[1,2-d]thiazol-8-yl)methanol]
15 | COC(=O)NC[C@H]1Cc2c(c(F)cc3nc(-c4cc(C)cc5nc(OC)cnc45)sc23)O1 [Example 218, (R)-methyl ((5-fluoro-2-(2-methoxy-7-methylquinoxalin-5-yl)-7,8-dihydrobenzofuro[5,4-d]thiazol-7-yl)methyl)carbamate]
1.7 | COc1cc(NC(=O)OC[C@H]2COc3c(cc(Cl)c4nc(-c5cc(C)cc6nc(OC)cnc56)sc34)O2)ccn1 [Example 36, (R)-(4-chloro-2-(2-methoxy-7-methylquinoxalin-5-yl)-7,8-dihydro-[1,4]dioxino[2′,3′:3,4]benzo[1,2-d]thiazol-7-yl)methyl (2-methoxypyridin-4-yl)carbamate]
18 | COc1cnc2c(-c3nc4c(C)cc5c(c4s3)OCC(COC(=O)Nc3ccc(O)nc3)O5)cc(C)cc2n1 (centres unmarked) [Example 123, (2-(2-methoxy-7-methylquinoxalin-5-yl)-4-methyl-7,8-dihydro-[1,4]dioxino[2′,3′:3,4]benzo [1,2-d]thiazol-7-yl)methyl (6-hydroxypyridin-3-yl)carbamate]
1.6 | COc1ccc(NC(=O)OC[C@H]2Cc3c(c(F)cc4nc(-c5cc(C)cc6nc(OC)cnc56)sc34)O2)cn1 [Example 164, (R)-(5-fluoro-2-(2-methoxy-7-methylquinoxalin-5-yl)-7,8-dihydrobenzofuro[5,4-d]thiazo 1-7-yl)methyl (6-methoxypyridin-3-yl)carbamate]
1.4 | COc1cnc2c(-c3nc4c(C)cc5c(c4s3)OC[C@H](COC(=O)Nc3ccnc(C)c3)O5)cc(C#N)cc2n1 [Example 92, (R)-(2-(7-cyano-2-methoxyquinoxalin-5-yl)-4-methyl-7,8-dihydro-[1,4]dioxino[2′,3′:3,4]benzo[1,2-d]thiazol-7-yl)methyl (2-methylpyridin-4-yl)carbamate]
4.1 | COc1cnc2c(-c3nc4ccc5c(c4s3)C[C@@H](CNC(=O)OCC3CCCCO3)O5)cc(C)cc2n1 (stereo partly drawn) [Example 235, (Tetrahydro-2H-pyran-2-yl)methyl (((S)-2-(2-methoxy-7-methylquinoxalin-5-yl)-7,8-dihydrobenzofuro[5,4-d]thiazol-7-yl)methyl)carbamate]
1.1 | CNC(=O)c1ccc(NC(=O)OC[C@H]2Cc3c(c(F)cc4nc(-c5cc(C)cc6nc(OC)cnc56)sc34)O2)cc1 [Example 208, (R)-(5-fluoro-2-(2-methoxy-7-methylquinoxalin-5-yl)-7,8-dihydrobenzofuro[5,4-d]thiazo 1-7-yl)methyl (4-(methylcarbamoyl)phenyl)carbamate]
1.8 | COc1cnc2c(-c3nc4c(C)cc5c(c4s3)OC[C@H](COC(=O)Nc3cccnc3)O5)cc(C)cc2n1 (single isomer, unassigned) [Example 5]
5.7 | COc1cnc2c(-c3nc4cc(F)c5c(c4s3)C[C@H](COC(=O)Nc3ccc(F)nc3)O5)cc(C)cc2n1 [Example 170, (R)-(5-fluoro-2-(2-methoxy-7-methylquinoxalin-5-yl)-7,8-dihydrobenzofuro[5,4-d]thiazo 1-7-yl)methyl (6-fluoropyridin-3-yl)carbamate]
2 | COc1cnc2c(-c3nc4c(C)cc5c(c4s3)OC[C@H](COC(=O)Nc3ccnc(C)c3)O5)cc(CO)cc2n1 [Example 99, (R)-(2-(7-(hydroxymethyl)-2-methoxyquinoxalin-5-yl)-4-methyl-7,8-dihydro-[1,4]dioxino[2′,3′:3,4]benzo[1,2-d]thiazol-7-yl)methyl (2-methylpyridin-4-yl)carbamate]
0.6 | COc1cnc2c(-c3nc4cc(F)c5c(c4s3)[C@H](C)[C@@H](CO)O5)cc(C#N)cc2n1 [Example 254, 8-((7S,8S)-5-fluoro-7-(hydroxymethyl)-8-methyl-7,8-dihydrobenzofuro[5,4-d]thiazol-2-y 1)-3-methoxyquinoxaline-6-carbonitrile]
1.8 | COc1cnc2c(-c3nc4c(Cl)cc5c(c4s3)OC[C@H](COC(=O)Nc3ccc(Cl)nc3)O5)cc(C)cc2n1 [Example 32, (R)-(4-chloro-2-(2-methoxy-7-methylquinoxalin-5-yl)-7,8-dihydro-[1,4]dioxino[2′,3′:3,4]benzo[1,2-d]thiazol-7-yl)methyl (6-chloropyridin-3-yl)carbamate]
1.4 | COc1cnc2c(-c3nc4c(Cl)cc5c(c4s3)OC[C@H](COC(=O)Nc3ccc(C#N)nc3)O5)cc(C)cc2n1 [Example 35, (R)-(4-chloro-2-(2-methoxy-7-methylquinoxalin-5-yl)-7,8-dihydro-[1,4]dioxino[2′,3′:3,4]benzo[1,2-d]thiazol-7-yl)methyl (6-cyanopyridin-3-yl)carbamate]
2.7 | COc1cnc2c(-c3nc4c(F)cc5c(c4s3)OC[C@H](COC(=O)Nc3ccc(C)nc3)O5)cc(C)cc2n1 [Example 76, (R)-(4-fluoro-2-(2-methoxy-7-methylquinoxalin-5-yl)-7,8-dihydro-[1,4]dioxino[2′,3′:3,4]benzo[1,2-d]thiazol-7-yl)methyl (6-methylpyridin-3-yl)carbamate]
4.3 | COc1cnc2c(-c3nc4ccc5c(c4s3)C[C@@H](CNC(=O)OC3CCCOC3)O5)cc(C)cc2n1 (stereo partly drawn) [Example 234, Tetrahydro-2H-pyran-3-yl (((S)-2-(2-methoxy-7-methylquinoxalin-5-yl)-7,8-dihydrobenzofuro[5,4-d]thiazol-7-yl)methyl)carbamate]
3.5 | COc1cnc2c(-c3nc4ccc5c(c4s3)C[C@](C)(COC(=O)Nc3cccnc3)O5)cc(C)cc2n1 [Example 195, (R)-(2-(2-methoxy-7-methylquinoxalin-5-yl)-7-methyl-7,8-dihydrobenzofuro[5,4-d]thiazol-7-yl)methyl pyridin-3-ylcarbamate]
29 | COc1cnc2c(-c3nc4c(F)cc5c(c4s3)OC[C@H](COC(=O)Nc3cccnc3)O5)cc(CO)cc2n1 [Example 83, (R)-(4-fluoro-2-(7-(hydroxymethyl)-2-methoxyquinoxalin-5-yl)-7,8-dihydro-[1,4]dioxino [2′,3′:3,4]benzo[1,2-d]thiazol-7-yl)methyl pyridin-3-ylcarbamate]
1.1 | COc1cnc2c(-c3nc4cc(F)c5c(c4s3)C[C@@](C)(CO)O5)cc(C)cc2n1 [Example 172, (S)-(5-fluoro-2-(2-methoxy-7-methylquinoxalin-5-yl)-7-methyl-7,8-dihydrobenzofuro[5,4-d]thiazol-7-yl)methanol]
6.3 | C=Cc1cc(-c2nc3c(C)cc4c(c3s2)OCC(COC(=O)Nc2ccc(OC)nc2)O4)c2ncc(OC)nc2c1 (centres unmarked) [Example 86, (2-(2-methoxy-7-vinylquinoxalin-5-yl)-4-methyl-7,8-dihydro-[1,4]dioxino[2′,3′:3,4]benzo [1,2-d]thiazol-7-yl)methyl (6-methoxypyridin-3-yl)carbamate]

Source: patent US11932658B2 (BRISTOL-MYERS SQUIBB COMPANY, priority 2016, dated 2024)
